This is an account of results in patent US20100261690A1, “NOVEL COMBINATIONS” (ASTRAZENECA R&D, priority 2009, published 2010).

The subject of the assay is LPS-induced TNFα production in human peripheral blood mononuclear cells (PBMCs). Briefly: Inhibition of LPS-induced TNFα production in human peripheral blood mononuclear cells (AlphaLISA). The format is cell-based. The settings on record: PBMC. The method, then:
Inhibition of Lipopolysaccharride (LPS)-Induced TNFα Production in Human Peripheral Blood Mononuclear Cells
Human isolated peripheral blood mononuclear cells (PBMCs) were pre-incubated with a range of concentrations of the GR agonist (1R,3aS,3bS,10aR,10bS,11S,12aS)-1-{[(cyanomethyl)sulfanyl]carbonyl}-7-(4-fluorophenyl)-11-hydroxy-10a,12a-dimethyl-1,2,3,3a,3b,4,5,7,10,10a,10b,11,12,12a-tetradecahydrocyclopenta[5,6]naphtho[1,2-f]indazol-1-yl furan-2-carboxylate (Compound A), alone or in the presence of a range of concentrations of a second compound with a distinct pharmacological activity for 45 minutes at 37° C. After the pre-incubation period, the cells were then incubated with LPS (5 ng/mL) for 18 hr at 37° C. to induce TNFα production. The total assay volume was 200 μL. At the end of the incubation period, 10 μL of the culture supernatant diluted 1:5 was analysed to quantify the TNFα released using AlphaLISA (PerkinElmer). The fluorescence was detected on an EnVision Alphareader. Inhibition curves were fitted using a 4-parameter logistic equation in a non-linear curve fitting routine and activity was expressed as pIC50.
In each table, the data represents the mean of two separate experiments using PBMC from healthy blood donors (n=2).

`C[C@]12Cc3cnn(-c4ccc(F)cc4)c3C=C1CC[C@@H]1[C@@H]2[C@@H](O)C[C@@]2(C)[C@H]1CC[C@]2(OC(=O)c1ccco1)C(=O)SCC#N` [Compound A, (1R,3aS,3bS,10aR,10bS,11S,12aS)-1-{[(cyanomethyl)sulfanyl]carbonyl}-7-(4-fluorophenyl)-11-hydroxy-10a,12a-dimethyl-1,2,3,3a,3b,4,5,7,10,10a,10b,11,12,12a-tetradecahydrocyclopenta[5,6]naphtho[1,2-f]indazol-1-yl furan-2-carboxylate]: the IC50 (read-out: pIC50 for inhibition of LPS-induced TNFα production from human PBMC (converted)) is 0.708 nM. One may read the inhibition as the drop in the measured response relative to a control, in per cent. As for `CNCCOc1ccccc1C1(Nc2nccn(-c3cc(C(=O)NC4CC4)cc(F)c3C)c2=O)CC1` [Compound E, N-cyclopropyl-3-fluoro-4-methyl-5-{3-[(1-{2-[2-(methylamino)ethoxy]phenyl}cyclopropyl)amino]-2-oxopyrazin-1(2H)-yl}benzamide], under “Compound A 1000 nM in combination with the listed second compound at 1 μM, mean n=2, read-out: % inhibition @ 1000 nM (maximal inhibition)”, the inhibition at 1 µM is 99.4%.
